We go through five molecules from patent US7790761B2, “Blockade of voltage dependent sodium channels” (University College London, priority 2000, dated 2010).

As a reminder, the melting point is the temperature of the solid-liquid transition. The IC50 is the concentration at which inhibition is half-maximal. The low end stands for greater potency, the high end for weaker potency.

Series [1] has as its system optic nerve axons. Briefly: Optic nerve pathology: axonal damage caused by oxygen- and glucose-deprivation (OGD). It is filed as cell-based, rat. Particulars: for Index of Axonopathy: mean ± S.E.M.; for Protection against axonal damage caused by OGD (in words): OGD-exposed rat optic nerve. As for the experimental part: Optic nerves were excised from adult Wistar rats (weighing 240-280 g) after decapitation. They comprised lengths of nerve (each about 9 mm long) running from immediately behind the eyeball to just in front of the optic chiasm. The nerves were incubated in Erlenmeyer flasks (50 ml capacity) containing 20 ml of an artificial CSF (aCSF) solution composed of (mM): NaCl (120) KCl (2.0), CaCl2 (2.0), NaHCO3 (26), KH2PO4 (1.18), MgSO4 (1.19) and glucose (11), continuously gassed with 95% O2/5% CO2. The flasks were held in a shaking water bath at 37° C.
(§1) After 1-2 h preincubation in aCSF, test nerves received the NO donor, PAPA/NO (1 mM) for 2 h or OGD was imposed by transferring the nerves for 1 h into aCSF lacking glucose and gassed with 5% CO2 in N2. Afterwards, the nerves were allowed a 90 min recovery period in aCSF. Putative protectant drugs were present from 15 min before until 15 min after the NO exposure or OGD.
The nerves were then fixed for 2 h in a mixture of 4% paraformaldehyde and 2.5% glutaraldehyde in 0.1 M phosphate buffer (pH 7.4), and post-fixed with 1% osmium tetroxide for 1 h. After dehydration the tissues were embedded in Durcupan resin. Semithin (1 μm) sections were stained with either toluidine blue.
To quantify the extent of axonal pathology under the light microscope, the degree of distension of the axon profiles was measured using an image analysis system as described previously (Garthwaite et al., (1999), Neuroscience, 94, 1219-1230). The data are expressed as mean number of axons greater than 2.5 μm in diameter per […] (±S.E.M.) in fields from 5-39 nerves.

Series [2] deals with optic nerve axons. Briefly: Optic nerve pathology: axonal damage caused by the NO donor PAPA/NO. It is filed as cell-based, rat. Particulars: for Index of Axonopathy: mean ± S.E.M.; for Effect on axonal pathology caused by NO (in words): PAPA/NO-exposed rat optic nerve. As for the experimental part: Optic nerves were excised from adult Wistar rats (weighing 240-280 g) after decapitation. They comprised lengths of nerve (each about 9 mm long) running from immediately behind the eyeball to just in front of the optic chiasm. […] The flasks were held in a shaking water bath at 37° C.
as §1
After dehydration the tissues were embedded in Durcupan resin. Semithin (1 μm) sections were stained with either toluidine blue.
The data are expressed as mean number of axons greater than 2.5 μm in diameter per […] (±S.E.M.) in fields from 5-39 nerves.

Series [3] concerns sodium channels. Briefly: [14C]-labelled guanidine flux through sodium channels. It is filed as biochemical, rat. Particulars: inhibition of flux of [14C]-labelled guanidine through sodium channels.

Molecules are shown by their SMILES.

In the case of `O=C(O)c1n[nH]c2ccccc12` [Example 48, Indazole-3-carboxylic acid], the melting point is 261 to 263 °C (dec.).
With `CN1CCN(c2ncc(-c3cc(Cl)cc(Cl)c3Cl)c(N)n2)CC1` [BW619C89, reference compound], the “Index of Axonopathy” value in series [1] (OGD 1 h + drug at 100 μM) is 53 ± 5 axons greater than 2.5 μm in diameter per 10^4 m^2; in series [2] (PAPA/NO (1 mM) + drug at 100 μM) it was 26 ± 3 axons greater than 2.5 μm in diameter per 10^4 m^2. For the same molecule, in series [1], the “Protection against axonal damage caused by OGD (in words)” value is on record as “able to protect to an equivalent degree”. For the same molecule, in series [2], the “Effect on axonal pathology caused by NO (in words)” value is “eliminated”.
`CN(C)Cc1noc(-c2nn(Cc3ccccc3)c3ccccc23)n1` [Example 52, 1-Benzyl-3-[3-(N,N-dimethylaminomethyl)-1,2,4oxadiazol-5-yl]indazole] had a melting point of 93 to 95 °C. The molecule also displayed an IC50 in series [3] of 33.9 µM.
Turning to `OCc1ccc(-c2nn(Cc3ccccc3)c3ccccc23)o1` [Example 4, 1-Benzyl-3-(5-hydroxymethyl-2-furyl)-1H-indazole], the “Index of Axonopathy” value is reported as 72 ± 15 axons greater than 2.5 μm in diameter per 10^4 m^2 in series [1] (OGD 1 h + drug, concentration not given) and 24 ± 4 axons greater than 2.5 μm in diameter per 10^4 m^2 in series [2] (PAPA/NO (1 mM) + drug at 30 μM). Moreover, the “Protection against axonal damage caused by OGD (in words)” value in series [1] is recorded as “able to protect to an equivalent degree”. In addition, the “Effect on axonal pathology caused by NO (in words)” value in series [2] was “as effective as both these other agents”. The molecule also registered a 50% inhibitory concentration (IC50) in series [3] of 17 µM.
Turning to `COC(=O)c1nn(Cc2ccccc2)c2ccccc12`, the melting point lay within 72 to 73 °C.
